Results on 20 molecules are retold here after US20240109865A1, “INDAZOLE COMPOUNDS AS KINASE INHIBITORS” (TYRA BIOSCIENCES, INC., priority 2020, published 2024).

Holding throughout (experiment): Kinase assay, binding constants (Kd), kinase-tagged T7 phage, qPCR
In general terms: Real-time PCR tracks product formation cycle by cycle.

The target in one test is FGFR1 (Homo sapiens (Human), UniProt P11362). As to the method: (§1) Kinase-tagged T7 phage strains were prepared in an E. coli host derived from the BL21 strain. E. coli were grown to log-phase and infected with T7 phage and incubated with shaking at 32° C. until lysis. The lysates were centrifuged and filtered to remove cell debris. Streptavidin-coated magnetic beads were treated with biotinylated small molecule ligands for 30 minutes at room temperature to generate affinity resins for kinase assays. The liganded beads were blocked with excess biotin and washed with blocking buffer SeaBlock (Pierce), […], 1 mM DTT to remove unbound ligand and to reduce non-specific binding.
(§2) Test compounds were prepared as 111λ stocks in 10000 DMS0. Kds were determined using an 11-point 3-fold compound dilution series with three DMSO control points. […] The compounds were then diluted directly into the assays such that the final concentration of DMSO was 0.9%. All reactions performed in polypropylene 384-well plate. Each was a final volume of 0.02 ml. […] The beads were then re-suspended in elution buffer (1×PBS, 0.05% Tween […] non-biotinylated affinity ligand) and incubated at room temperature with shaking for 30 minutes. The kinase concentration in the eluates was measured by qPCR.
(§3) Binding constants were calculated with a standard dose-response curve using the Hill equation: […]
(§4) The Hill Slope was set to −1. Curves were fitted using a non-linear least square fit with the Levenberg-Marquardt algorithm.

Another test deals with FGFR2 (Homo sapiens (Human), UniProt P21802). On the procedure: as §1, §2, §3, §4
The target in a further test is FGFR3 (Homo sapiens (Human), UniProt P22607). On the procedure: as §1, §2, §3, §4
The target of the next test is FGFR3 (V555M) (Homo sapiens (Human), UniProt P22607, V555M). The settings on record: V555M mutant. As to the method: as §1, §2, §3, §4
The target of another test is FGFR4 (Homo sapiens (Human), UniProt P22455). As to the method:
as §1, §2, §3, §4

Sequence of FGFR3 (V555M) (P22607 23-806 V555M): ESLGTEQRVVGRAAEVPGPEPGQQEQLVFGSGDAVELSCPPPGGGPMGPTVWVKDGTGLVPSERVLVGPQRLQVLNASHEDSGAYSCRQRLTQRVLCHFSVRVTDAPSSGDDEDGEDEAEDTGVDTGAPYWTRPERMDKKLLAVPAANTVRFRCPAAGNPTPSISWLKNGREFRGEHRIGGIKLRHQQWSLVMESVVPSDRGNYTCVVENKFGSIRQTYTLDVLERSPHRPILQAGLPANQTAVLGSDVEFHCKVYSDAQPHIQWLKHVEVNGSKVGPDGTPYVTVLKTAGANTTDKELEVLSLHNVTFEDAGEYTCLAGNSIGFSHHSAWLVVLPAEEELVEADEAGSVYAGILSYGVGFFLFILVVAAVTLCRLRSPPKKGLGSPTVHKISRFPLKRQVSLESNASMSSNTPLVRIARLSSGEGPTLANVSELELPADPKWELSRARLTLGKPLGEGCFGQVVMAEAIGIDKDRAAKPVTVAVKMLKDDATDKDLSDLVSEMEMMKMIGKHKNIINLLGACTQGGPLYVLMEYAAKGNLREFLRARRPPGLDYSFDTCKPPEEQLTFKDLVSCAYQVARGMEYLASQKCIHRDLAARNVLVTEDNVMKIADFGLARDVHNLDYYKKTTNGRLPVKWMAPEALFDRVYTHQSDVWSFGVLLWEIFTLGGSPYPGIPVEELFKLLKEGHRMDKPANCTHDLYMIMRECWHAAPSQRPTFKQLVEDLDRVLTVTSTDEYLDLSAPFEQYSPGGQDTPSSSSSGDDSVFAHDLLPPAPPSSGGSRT
Sequence of FGFR2 (P21802 22-821): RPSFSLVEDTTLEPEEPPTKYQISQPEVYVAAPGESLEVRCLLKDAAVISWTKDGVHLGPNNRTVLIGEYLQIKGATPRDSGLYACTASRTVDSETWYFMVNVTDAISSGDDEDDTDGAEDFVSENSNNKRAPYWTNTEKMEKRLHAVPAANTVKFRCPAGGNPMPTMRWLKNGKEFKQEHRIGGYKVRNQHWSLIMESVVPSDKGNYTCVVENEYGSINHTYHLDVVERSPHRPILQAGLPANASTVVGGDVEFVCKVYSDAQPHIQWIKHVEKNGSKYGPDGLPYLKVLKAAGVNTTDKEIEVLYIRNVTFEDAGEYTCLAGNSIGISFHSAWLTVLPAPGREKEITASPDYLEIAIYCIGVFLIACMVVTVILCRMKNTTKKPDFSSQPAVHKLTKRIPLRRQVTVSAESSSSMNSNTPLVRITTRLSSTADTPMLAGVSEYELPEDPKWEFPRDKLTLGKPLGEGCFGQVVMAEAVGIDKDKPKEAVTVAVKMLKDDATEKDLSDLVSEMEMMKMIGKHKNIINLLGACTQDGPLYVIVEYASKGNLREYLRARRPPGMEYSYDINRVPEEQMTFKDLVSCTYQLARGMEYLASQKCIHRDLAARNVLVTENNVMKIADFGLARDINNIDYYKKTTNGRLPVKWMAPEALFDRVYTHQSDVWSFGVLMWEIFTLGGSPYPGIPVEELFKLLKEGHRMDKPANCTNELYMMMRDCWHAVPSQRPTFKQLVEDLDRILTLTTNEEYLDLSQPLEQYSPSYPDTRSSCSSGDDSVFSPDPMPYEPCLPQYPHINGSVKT
Sequence of FGFR3 (P22607 23-806): as the sequence (P22607 23-806 V555M) above, with M533V counted along it
Sequence of FGFR1 (P11362 22-822): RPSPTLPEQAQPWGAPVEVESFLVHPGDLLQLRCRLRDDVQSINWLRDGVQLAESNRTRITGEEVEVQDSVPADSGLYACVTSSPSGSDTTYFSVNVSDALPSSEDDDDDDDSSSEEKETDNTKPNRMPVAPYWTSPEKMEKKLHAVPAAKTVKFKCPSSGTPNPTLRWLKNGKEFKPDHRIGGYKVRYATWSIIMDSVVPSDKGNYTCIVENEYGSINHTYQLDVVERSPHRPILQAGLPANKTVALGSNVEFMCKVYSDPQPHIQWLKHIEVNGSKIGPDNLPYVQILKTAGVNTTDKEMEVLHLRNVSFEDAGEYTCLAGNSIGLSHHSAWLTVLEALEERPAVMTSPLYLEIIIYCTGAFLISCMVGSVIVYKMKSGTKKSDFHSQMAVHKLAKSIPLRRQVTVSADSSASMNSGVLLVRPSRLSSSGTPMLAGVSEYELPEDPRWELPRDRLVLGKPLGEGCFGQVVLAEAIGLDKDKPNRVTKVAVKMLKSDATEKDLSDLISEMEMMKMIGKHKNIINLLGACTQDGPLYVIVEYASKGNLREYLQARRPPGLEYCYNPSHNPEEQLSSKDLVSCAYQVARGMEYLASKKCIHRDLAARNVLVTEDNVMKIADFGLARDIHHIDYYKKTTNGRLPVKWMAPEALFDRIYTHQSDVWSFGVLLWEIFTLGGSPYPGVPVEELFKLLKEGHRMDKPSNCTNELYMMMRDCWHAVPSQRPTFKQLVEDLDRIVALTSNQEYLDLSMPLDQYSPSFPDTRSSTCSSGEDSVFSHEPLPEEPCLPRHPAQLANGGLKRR
Sequence of FGFR4 (P22455 22-802): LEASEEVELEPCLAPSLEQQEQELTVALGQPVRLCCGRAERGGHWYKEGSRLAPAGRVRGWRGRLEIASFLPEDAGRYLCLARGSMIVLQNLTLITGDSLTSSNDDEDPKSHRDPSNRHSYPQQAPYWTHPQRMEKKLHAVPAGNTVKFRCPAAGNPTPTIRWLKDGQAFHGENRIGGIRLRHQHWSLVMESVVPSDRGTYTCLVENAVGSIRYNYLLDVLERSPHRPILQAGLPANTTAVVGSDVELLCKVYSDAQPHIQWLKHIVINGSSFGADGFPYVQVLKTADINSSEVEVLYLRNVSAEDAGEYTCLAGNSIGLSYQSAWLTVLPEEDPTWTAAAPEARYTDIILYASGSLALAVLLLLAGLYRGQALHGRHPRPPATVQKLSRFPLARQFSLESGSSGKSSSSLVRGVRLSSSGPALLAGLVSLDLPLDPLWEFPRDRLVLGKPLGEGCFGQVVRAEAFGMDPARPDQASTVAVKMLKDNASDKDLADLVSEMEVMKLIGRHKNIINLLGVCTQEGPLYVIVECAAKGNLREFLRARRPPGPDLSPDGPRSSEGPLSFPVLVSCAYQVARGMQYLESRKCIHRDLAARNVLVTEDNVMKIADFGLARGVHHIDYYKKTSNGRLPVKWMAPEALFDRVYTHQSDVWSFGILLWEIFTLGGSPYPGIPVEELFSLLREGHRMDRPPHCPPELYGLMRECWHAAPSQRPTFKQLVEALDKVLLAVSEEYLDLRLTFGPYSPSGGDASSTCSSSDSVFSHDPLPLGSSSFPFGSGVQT

In general, Kd refers to a measure of binding affinity in units of concentration. A high value points to weaker binding. As for `C[C@@H](Oc1ccc2[nH]nc(-c3ccc(N4CC5(CNC5)C4)nc3)c2c1)c1c(Cl)cncc1Cl` [Example 45, 3-[6-(2,6-diazaspiro[3.3]heptan-2-yl)-3-pyridyl]-5-[(1R)-1-(3,5-dichloro-4-pyridyl)ethoxy]-1H-indazole], the Kd on FGFR1, at FGFR2, at FGFR3, on FGFR3 (V555M) and at FGFR4 was 1 to 20 nM in each case.
As for `C[C@@H](Oc1ccc2[nH]nc(-c3cnc(Cl)nc3)c2c1)c1c(Cl)cncc1Cl` [Example 59, 3-(2-Chloropyrimidin-5-yl)-5-[(1R)-1-(3,5-dichloro-4-pyridyl)ethoxy]-1H-indazole], the Kd on FGFR1 lay in the range of 20 to 100 nM; on FGFR2 it was 100 to 300 nM; on FGFR3, 20 to 100 nM; at FGFR3 (V555M), 20 to 100 nM; on FGFR4 it was 20 to 100 nM.
As to `C[C@@H](Oc1ccc2[nH]nc(-c3cnc(N4CCCNCC4)nc3)c2c1)c1c(Cl)cncc1Cl` [Example 61, 3-[2-(1,4-Diazepan-1-yl)pyrimidin-5-yl]-5-[(1R)-1-(3,5-dichloro-4-pyridyl)ethoxy]-1H-indazole], the Kd was 1 to 20 nM at FGFR1; 20 to 100 nM at FGFR2; 1 to 20 nM at FGFR3; 1 to 20 nM at FGFR3 (V555M); 1 to 20 nM on FGFR4.
As to `C[C@@H](Oc1ccc2[nH]nc(-c3cnn(C4CCN(S(C)(=O)=O)CC4)c3)c2c1)c1c(Cl)cncc1Cl` [Example 66, 5-[(1R)-1-(3,5-dichloro-4-pyridyl)ethoxy]-3-[1-(1-methylsulfonyl-4-piperidyl)pyrazol-4-yl]-1H-indazole], the Kd at FGFR1, on FGFR2, at FGFR3, at FGFR3 (V555M) and on FGFR4 was 1 to 20 nM in each case.
For the molecule `C[C@@H](Oc1ccc2[nH]nc(-c3ccc(C4CCNCC4)nc3)c2c1)c1c(Cl)cncc1Cl` [Example 69, 5-[(1R)-1-(3,5-dichloro-4-pyridyl)ethoxy]-3-[6-(4-piperidyl)-3-pyridyl]-1H-indazole], the Kd on FGFR1, at FGFR2, at FGFR3, on FGFR3 (V555M) and at FGFR4 was 1 to 20 nM each time.
Consider `C[C@@H](Oc1ccc2[nH]nc(-c3ccc(N4CC5(CCN(S(C)(=O)=O)CC5)OC4=O)nc3)c2c1)c1c(Cl)cncc1Cl` [Example 76, 3-[5-[5-[(1R)-1-(3,5-dichloro-4-pyridyl)ethoxy]-1H-indazol-3-yl]-2-pyridyl]-8-methylsulfonyl-1-oxa-3,8-diazaspiro[4.5]decan-2-one], for which the Kd on FGFR1 fell in the range of 20 to 100 nM; at FGFR2 it was 20 to 100 nM; on FGFR3 it was 1 to 20 nM; on FGFR3 (V555M), 1 to 20 nM; on FGFR4 it was 1 to 20 nM.
As to `C[C@@H](Oc1ccc2[nH]nc(-c3cnn(C4CCN(C(=O)CN(C)C)CC4)c3)c2c1)c1c(Cl)cncc1Cl` [Example 81, 1-[4-[4-[5-[(1R)-1-(3,5-dichloro-4-pyridyl)ethoxy]-1H-indazol-3-yl]pyrazol-1-yl]-1-piperidyl]-2-(dimethylamino)ethanone], the Kd on FGFR1, on FGFR2, on FGFR3, at FGFR3 (V555M) and on FGFR4 was 1 to 20 nM in each case.
On to `CC(C)N1CCC(n2cc(-c3n[nH]c4ccc(O[C@H](C)c5c(Cl)cncc5Cl)cc34)cn2)CC1` [Example 83, 5-[(1R)-1-(3,5-dichloro-4-pyridyl)ethoxy]-3-[1-(1-isopropyl-4-piperidyl)pyrazol-4-yl]-1H-indazole], for which the Kd at FGFR1 is 1 to 20 nM; at FGFR2, 1 to 20 nM; on FGFR3, 1 to 20 nM; at FGFR3 (V555M), 1 to 20 nM; at FGFR4 it was 20 to 100 nM.
`CC(C)N1CC[C@@H](n2cc(-c3n[nH]c4ccc(O[C@H](C)c5c(Cl)cncc5Cl)cc34)cn2)C1` [Example 84, 5-[(1R)-1-(3,5-dichloro-4-pyridyl)ethoxy]-3-[(1R)-1-(1-isopropylpyrrolidin-3-yl)pyrazol-4-yl]-1H-indazole]: the Kd at FGFR1 was in the range of 1 to 20 nM; on FGFR2, 1 to 20 nM; on FGFR3 it was 1 to 20 nM; on FGFR3 (V555M) it was 1 to 20 nM; at FGFR4, 20 to 100 nM.
Take `C[C@@H](Oc1ccc2[nH]nc(-c3cnn(C4CNC4)c3)c2c1)c1c(Cl)cncc1Cl` [Example 85, 3-[1-(azetidin-3-yl)pyrazol-4-yl]-5-[(1R)-1-(3,5-dichloro-4-pyridyl)ethoxy]-1H-indazole]: the Kd at FGFR1, at FGFR2, on FGFR3, on FGFR3 (V555M) and at FGFR4 was 1 to 20 nM in each case.
Consider `CC(C)N1CC(n2cc(-c3n[nH]c4ccc(O[C@H](C)c5c(Cl)cncc5Cl)cc34)cn2)C1` [Example 86, 5-[(1R)-1-(3,5-dichloro-4-pyridyl)ethoxy]-3-[1-(1-isopropylazetidin-3-yl)pyrazol-4-yl]-1H-indazole], for which the Kd on FGFR1, at FGFR2, on FGFR3, on FGFR3 (V555M) and on FGFR4 was 1 to 20 nM in each case.
Regarding `CCN1CC[C@H](n2cc(-c3n[nH]c4ccc(O[C@H](C)c5c(Cl)cncc5Cl)cc34)cn2)C1` [Example 89, 5-[(1R)-1-(3,5-dichloro-4-pyridyl)ethoxy]-3-[1-[(3S)-1-ethylpyrrolidin-3-yl]pyrazol-4-yl]-1H-indazole], the dissociation constant (Kd) at FGFR1 is 1 to 20 nM; at FGFR2, 1 to 20 nM; at FGFR3 it was 1 to 20 nM; on FGFR3 (V555M) it was 1 to 20 nM; at FGFR4, 20 to 100 nM.
Turning to `C[C@@H](Oc1ccc2[nH]nc(-c3ccc(N4CC5(CCN5)C4)nc3)c2c1)c1c(Cl)cncc1Cl` [Example 99, 3-[6-(1,6-diazaspiro[3.3]heptan-6-yl)-3-pyridyl]-5-[(1R)-1-(3,5-dichloro-4-pyridyl)ethoxy]-1H-indazole], the Kd at FGFR1, on FGFR2, on FGFR3, on FGFR3 (V555M) and on FGFR4 was 1 to 20 nM throughout.
In the case of `Cc1cc(-c2n[nH]c3ccc(O[C@H](C)c4c(Cl)cncc4Cl)cc23)cnc1N1CCOCC1` [Example 101, 4-[5-[5-[(1R)-1-(3,5-dichloro-4-pyridyl)ethoxy]-1H-indazol-3-yl]-3-methyl-2-pyridyl]morpholine], the Kd fell in the range of 20 to 100 nM at FGFR1; 20 to 100 nM at FGFR2; 1 to 20 nM on FGFR3; 1 to 20 nM on FGFR3 (V555M); 1 to 20 nM at FGFR4.
As for `C[C@@H](Oc1ccc2[nH]nc(-c3cnc(N4CCOCC4)c(C#N)c3)c2c1)c1c(Cl)cncc1Cl` [Example 102, 5-[5-[(1R)-1-(3,5-dichloro-4-pyridyl)ethoxy]-1H-indazol-3-yl]-2-morpholino-pyridine-3-carbonitrile], the Kd fell in the range of 20 to 100 nM at FGFR1; 20 to 100 nM on FGFR2; 1 to 20 nM on FGFR3; 1 to 20 nM on FGFR3 (V555M); 1 to 20 nM on FGFR4.
Take `C[C@@H](Oc1ccc2[nH]nc(-c3ccc(N4CCOCC4)cn3)c2c1)c1c(Cl)cncc1Cl` [Example 103, 4-[6-[5-[(1R)-1-(3,5-dichloro-4-pyridyl)ethoxy]-1H-indazol-3-yl]-3-pyridyl]morpholine]: the Kd at FGFR1 lay in the range of 1 to 20 nM; at FGFR2 it was 20 to 100 nM; at FGFR3, 1 to 20 nM; on FGFR3 (V555M), 1 to 20 nM; at FGFR4, 1 to 20 nM.
Take `COc1cc(-c2n[nH]c3ccc(O[C@H](C)c4c(Cl)cncc4Cl)cc23)cnc1N1CCOCC1` [Example 105, 4-[5-[5-[(1R)-1-(3,5-dichloro-4-pyridyl)ethoxy]-1H-indazol-3-yl]-3-methoxy-2-pyridyl]morpholine]: the equilibrium dissociation constant (Kd) at FGFR1 is over 300 nM; on FGFR2 it was over 300 nM; at FGFR3, 100 to 300 nM; on FGFR3 (V555M) it was 100 to 300 nM; at FGFR4 it was 20 to 100 nM.
With `Cc1cnnc(C)c1[C@@H](C)Oc1ccc2[nH]nc(-c3cnc(N4CCCC4)c(C#N)c3)c2c1` [Example 173, 5-[5-[(1R)-1-(3,5-dimethylpyridazin-4-yl)ethoxy]-1H-indazol-3-yl]-2-pyrrolidin-1-yl-pyridine-3-carbonitrile], the dissociation constant (Kd) lay in the range of 100 to 300 nM at FGFR1, 20 to 100 nM at FGFR3, 20 to 100 nM on FGFR3 (V555M) and 1 to 20 nM on FGFR4.
For the molecule `CCN1C2CC1CN(c1ccc(-c3n[nH]c4cc(OC)c(O[C@H](C)c5c(C)cnnc5C)cc34)cn1)C2` [Example 213, 3-(5-(5-((R)-1-(3,5-dimethylpyridazin-4-yl)ethoxy)-6-methoxy-1H-indazol-3-yl)pyridin-2-yl)-6-ethyl-3,6-diazabicyclo[3.1.1]heptane], the equilibrium dissociation constant (Kd) at FGFR1, at FGFR3, on FGFR3 (V555M) and on FGFR4 was 1 to 20 nM throughout.
Regarding `C[C@@H](Oc1ccc2[nH]nc(-c3ccc(N4CC5(CCOC5)C4)nc3)c2c1)c1c(Cl)cnnc1Cl` [Example 223, (R)-2-(5-(5-(1-(3,5-dichloropyridazin-4-yl)ethoxy)-1H-indazol-3-yl)pyridin-2-yl)-6-oxa-2-azaspiro[3.4]octane], the Kd at FGFR2 lay within 100 to 300 nM; on FGFR3, 20 to 100 nM; on FGFR3 (V555M) it was 20 to 100 nM.
